Test results as given in patent US20230131966A1, “FUNGICIDAL AMIDES” (FMC Corporation, priority 2020, published 2023).

Legend:
Type in all cases: in vivo
Phytophthora infestans = assay: whole plant or invertebrate; conditions: tomato seedlings; for Test F disease control rating / pest or weed control at 250 ppm: 100 = 100% disease control, 0 = no control; for pest or weed control at 250 ppm: Phytophthora infestans, in Solanum lycopersicum, read-out: Test F disease control rating, 250 ppm; for Test F disease control rating (100 = 100% disease control, 0 = no disease control): rate 250 ppm, relative to the controls
[1] = tested on: Puccinia recondita f. sp. tritici; assay: Test B: wheat leaf rust control on wheat seedlings; conditions: for Test B disease control rating / pest or weed control at 250 ppm: wheat seedlings, 100 = 100% disease control, 0 = no control; for pest or weed control at 250 ppm: Puccinia recondita, read-out: Test B disease control rating; for Test B disease control rating (100 = 100% disease control, 0 = no disease control): rate 250 ppm, relative to the controls
Plasmopara viticola = assay: Test D: grape downy mildew control on grape seedlings; conditions: for Test D disease control rating / pest or weed control at 250 ppm: 100 = 100% disease control, 0 = no control; for pest or weed control at 250 ppm: Plasmopara viticola, read-out: Test D disease control rating; for Test D disease control rating (100 = 100% disease control, 0 = no disease control): rate 250 ppm, relative to the controls
Botrytis cinerea = assay: Test E: tomato Botrytis control on tomato seedlings; conditions: for Test E disease control rating / pest or weed control at 250 ppm: 100 = 100% disease control, 0 = no control; for pest or weed control at 250 ppm: Botrytis cinerea, read-out: Test E disease control rating; for Test E disease control rating (100 = 100% disease control, 0 = no disease control): rate 250 ppm, relative to the controls
[2] = tested on: Erysiphe graminis f. sp. tritici; assay: Test G: wheat powdery mildew control on wheat seedlings; conditions: for Test G disease control rating / pest or weed control at 250 ppm: 100 = 100% disease control, 0 = no control; for pest or weed control at 250 ppm: Blumeria graminis, read-out: Test G disease control rating; for Test G disease control rating (100 = 100% disease control, 0 = no disease control): rate 250 ppm, relative to the controls
Zymoseptoria tritici = assay: Test C: wheat leaf blotch control on wheat seedlings; conditions: for Test C disease control rating / pest or weed control at 250 ppm: wheat seedlings, 100 = 100% disease control, 0 = no control; for pest or weed control at 250 ppm: Zymoseptoria tritici, read-out: Test C disease control rating; for Test C disease control rating (100 = 100% disease control, 0 = no disease control): rate 250 ppm, relative to the controls
Phakopsora pachyrhizi = assay: Test A: Asian soybean rust control on soybean seedlings; conditions: for Test A disease control rating / pest or weed control at 250 ppm: soybean seedlings, 100 = 100% disease control, 0 = no control; for pest or weed control at 250 ppm: Phakopsora pachyrhizi, read-out: Test A disease control rating; for Test A disease control rating (100 = 100% disease control, 0 = no disease control): rate 250 ppm, relative to the controls

Compound	Test F disease control rating (Phytophthora infestans; 250 ppm)	Test B disease control rating ([1]; 250 ppm)	Test D disease control rating (Plasmopara viticola; 250 ppm)	Test E disease control rating (Botrytis cinerea; 250 ppm)	Test G disease control rating ([2]; 250 ppm)	Test C disease control rating (Zymoseptoria tritici; 250 ppm)	Test A disease control rating (Phakopsora pachyrhizi; 250 ppm)	further results
COc1ccnc(C(=O)NC(C)C(=O)OC(C)c2ccccc2-n2ccc(C(F)(F)F)n2)c1O (mixture of isomers) [Compound 26]	0%	0%	43%	0%	0%	47%	73%	–
CCC(OC(=O)[C@H](C)NC(=O)c1nccc(OC)c1OC(C)=O)C1CCCCC1 (mixture of isomers) [Compound 83, N-[[3-(acetyloxy)-4-methoxy-2-pyridinyl]carbonyl]-L-alanine 1-cyclohexylpropyl ester]	–	–	–	–	–	–	–	pest or weed control at 250 ppm (Phytophthora infestans): 0%; pest or weed control at 250 ppm ([1]; 250 ppm): 100%; pest or weed control at 250 ppm (Plasmopara viticola; 250 ppm): 27%; pest or weed control at 250 ppm (Botrytis cinerea; 250 ppm): 0%; pest or weed control at 250 ppm ([2]; 250 ppm): 0%; pest or weed control at 250 ppm (Zymoseptoria tritici; 250 ppm): 97%; pest or weed control at 250 ppm (Phakopsora pachyrhizi; 250 ppm): 100%
COc1ccnc(C(=O)N[C@@H](C)C(=O)OC(c2ccc(C3CCCCC3)cc2)C(F)(F)F)c1OC(C)=O (some centres unmarked) [Compound 119]	0%	99%	27%	0%	48%	88%	100%	–
COc1ccnc(C(=O)NC(C)C(=O)OC(C)C2COc3ccccc32)c1OC(C)=O (mixture of isomers) [Compound 191]	–	–	–	–	–	–	–	Test F disease control rating (100 = 100% disease control, 0 = no disease control) (Phytophthora infestans): 0%; Test B disease control rating (100 = 100% disease control, 0 = no disease control) [1]: 96%; Test D disease control rating (100 = 100% disease control, 0 = no disease control) (Plasmopara viticola): 26%; Test E disease control rating (100 = 100% disease control, 0 = no disease control) (Botrytis cinerea): 0%; Test G disease control rating (100 = 100% disease control, 0 = no disease control) [2]: 21%; Test C disease control rating (100 = 100% disease control, 0 = no disease control) (Zymoseptoria tritici): 89%; Test A disease control rating (100 = 100% disease control, 0 = no disease control) (Phakopsora pachyrhizi): 100%
COc1ccnc(C(=O)NC(C)C(=O)OC(C)c2ccc(C3CCCCC3)cc2)c1OS(C)(=O)=O (mixture of isomers) [Compound 156]	17%	68%	7%	0%	0%	13%	89%	–
COc1ccnc(C(=O)N[C@@H](C)C(=O)OC(C)c2ccccc2Cc2ccc(F)cc2)c1OC(C)=O (single isomer, unassigned) [Compound 22]	0%	99%	61%	0%	0%	85%	100%	–
COc1cccc(C(=O)NC(C)C(=O)OC(C)C2CCCCC2)c1O (mixture of isomers) [Compound 91]	0%	0%	96%	0%	0%	2%	0%	–
COc1ccnc(C(=O)N[C@@H](C)C(=O)OC(C)c2ccc(C3CCCCC3)cc2)c1OC(=O)c1ccccc1 (some centres unmarked) [Compound 136]	0%	90%	4%	0%	0%	0%	60%	–
COc1ccnc(C(=O)NC(C)C(=O)OC(C)c2ccc(F)cc2Oc2ccccc2)c1OC(C)=O (mixture of isomers) [Compound 85]	0%	79%	62%	0%	0%	67%	63%	–
COc1ccnc(C(=O)N[C@@H](C)C(=O)OC(C)c2cccc3ccccc23)c1OC(C)=O (single isomer, unassigned) [Compound 116]	0%	100%	55%	0%	0%	95%	100%	–
CC(NC(=O)c1cccc(N)c1O)C(=O)OC(C)c1ccccc1Cc1ccccc1 (racemic) [Compound 9]	–	–	–	–	–	–	–	pest or weed control at 250 ppm (Phytophthora infestans): 76%; pest or weed control at 250 ppm ([1]; 250 ppm): 91%; pest or weed control at 250 ppm (Plasmopara viticola; 250 ppm): 97%; pest or weed control at 250 ppm (Botrytis cinerea; 250 ppm): 0%; pest or weed control at 250 ppm ([2]; 250 ppm): 0%; pest or weed control at 250 ppm (Zymoseptoria tritici; 250 ppm): 53%; pest or weed control at 250 ppm (Phakopsora pachyrhizi; 250 ppm): 95%
CCC(OC(=O)[C@H](C)NC(=O)c1nccc(OC)c1O)C1CCCCC1 (single isomer, unassigned) [Compound 167]	0%	100%	41%	0%	0%	90%	100%	–
COc1ccnc(C(=O)NC(C)C(=O)OC(C)C2CCC(C)(C)CC2)c1O (mixture of isomers) [Compound 173]	0%	98%	8%	0%	0%	66%	100%	–
CCC(OC(=O)[C@H](C)NC(=O)c1nccc(OC)c1OCOC(=O)C(C)C)C1CCCCC1 (single isomer, unassigned) [Compound 188]	–	–	–	–	–	–	–	Test F disease control rating (100 = 100% disease control, 0 = no disease control) (Phytophthora infestans): 0%; Test B disease control rating (100 = 100% disease control, 0 = no disease control) [1]: 68%; Test D disease control rating (100 = 100% disease control, 0 = no disease control) (Plasmopara viticola): 43%; Test E disease control rating (100 = 100% disease control, 0 = no disease control) (Botrytis cinerea): 0%; Test G disease control rating (100 = 100% disease control, 0 = no disease control) [2]: 0%; Test C disease control rating (100 = 100% disease control, 0 = no disease control) (Zymoseptoria tritici): 27%; Test A disease control rating (100 = 100% disease control, 0 = no disease control) (Phakopsora pachyrhizi): 100%
COc1ccnc(C(=O)NC(C)C(=O)OC(C)c2ccc(C3CCCC3)cc2)c1OC(C)=O (mixture of isomers) [Compound 64]	–	–	–	–	–	–	–	Test F disease control rating (Phytophthora infestans; 50 ppm): 0%; Test B disease control rating ([1]; 50 ppm): 99%; Test D disease control rating (Plasmopara viticola; 50 ppm): 86%; Test E disease control rating (Botrytis cinerea; 50 ppm): 0%; Test G disease control rating ([2]; 50 ppm): 0%; Test C disease control rating (Zymoseptoria tritici; 50 ppm): 13%; Test A disease control rating (Phakopsora pachyrhizi; 50 ppm): 100%
COc1ccnc(C(=O)N[C@@H](C)C(=O)OC(C2CCCCC2)C2CCCCC2)c1O [Compound 45]	9%	0%	43%	0%	0%	39%	100%	–
COc1ccnc(C(=O)NC(C)C(=O)N(C)C(C)c2ccc(C3CCCCC3)cc2)c1O (mixture of isomers) [Compound 98]	0%	0%	71%	0%	0%	59%	89%	–
